In ChEMBL document CHEMBL6182863, “Discovery of novel rigid STING PROTAC degraders as potential therapeutics for acute kidney injury” (Eur J Med Chem, 2025):
≈ marks a conversion by molar mass, not a printed value. Calls of active or inactive are those of the source. The calls are words filed in the database; no cut-off is given here.

What was measured:
[1] = Acute toxicity in C57BL/6J mouse assessed as change in body weight at 43 mg/kg; format: organism-based; conditions: in vivo
[2] = test system: Mus musculus; test: Renoprotective activity against cisplatin-induced C57BL/6J mouse acute kidney injury model assessed as survival rate at 50 mg/kg, ip measured after 72 hrs relative to control; format: functional
[3] = AUC (0 to infinity) in male Sprague-Dawley rat at 2 mg/kg, iv measured after 12 hrs by LC-MS/MS analysis; format: ADME, organism-based; conditions: in vivo
[4] = test system: HEK-293T; test: Cytotoxicity against human HEK293T cells assessed as reduction in cell viability at 0.5 to 120 uM incubated for 24 hrs by MTT assay; format: toxicity, cell-based; conditions: dose 0.5-120 µM
[5] = MRT (0 to t) in male Sprague-Dawley rat at 2 mg/kg, iv measured after 12 hrs by LC-MS/MS analysis; format: ADME, organism-based; conditions: in vivo
[6] = test system: Mus musculus; test: Renoprotective activity against cisplatin-induced C57BL/6J mouse acute kidney injury model assessed as decrease in fecal occult blood at 25 to 50 mg/kg, ip measured after 72 hrs; format: functional, organism-based; conditions: dose 25-50 mg/kg
[7] = Acute toxicity in C57BL/6J mouse assessed as change in body weight at 61 mg/kg; format: organism-based; conditions: in vivo
[8] = test system: HK-2; test: Inhibition of STING downstream signal pathway in cisplatin stimulated human HK-2 cells assessed as reduction in STING protein level at 1.25 to 5 uM pretreated with cisplatin followed by compound addition by Western blotting analysis; format: cell-based; conditions: dose 1.25-5 µM
[9] = molecular target: Transcription factor p65 (Homo sapiens) (UniProt Q04206); test: Inhibition of NF-kappaB P65 nuclear translocation in human HK-2 cells at 0.25 to 5 uM by DAPI staining based fluorescence microscopic analysis; format: cell-based; conditions: dose 0.25-5 µM
Chain of Transcription factor p65 (Homo sapiens) (Q04206 whole entry): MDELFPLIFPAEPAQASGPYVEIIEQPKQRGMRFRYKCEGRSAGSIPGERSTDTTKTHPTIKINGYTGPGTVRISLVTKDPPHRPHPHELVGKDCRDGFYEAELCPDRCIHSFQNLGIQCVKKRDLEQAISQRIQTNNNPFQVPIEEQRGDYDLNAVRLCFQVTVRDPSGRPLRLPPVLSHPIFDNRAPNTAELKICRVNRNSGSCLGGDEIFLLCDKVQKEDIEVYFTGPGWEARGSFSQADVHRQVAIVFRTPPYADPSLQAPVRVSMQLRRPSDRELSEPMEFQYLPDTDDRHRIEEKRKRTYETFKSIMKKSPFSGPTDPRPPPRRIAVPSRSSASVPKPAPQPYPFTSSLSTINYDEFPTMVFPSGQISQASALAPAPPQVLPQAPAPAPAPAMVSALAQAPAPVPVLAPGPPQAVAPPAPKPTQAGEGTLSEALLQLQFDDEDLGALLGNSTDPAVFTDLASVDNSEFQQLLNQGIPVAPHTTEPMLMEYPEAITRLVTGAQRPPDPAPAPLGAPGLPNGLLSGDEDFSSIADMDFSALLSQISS

[10] = molecular target: T1, Protein cereblon/Stimulator of interferon genes protein (Homo sapiens, UniProt Q96SW2+Q86WV6); test: PROTAC activity at CRBN/STING in human THP-1 cells assessed as induction of STING degradation at 5 uM incubated for 24 hrs in presence of bafilomycin by Western blotting analysis; format: cell-based
T1 sequence (Q86WV6 whole entry, looked up): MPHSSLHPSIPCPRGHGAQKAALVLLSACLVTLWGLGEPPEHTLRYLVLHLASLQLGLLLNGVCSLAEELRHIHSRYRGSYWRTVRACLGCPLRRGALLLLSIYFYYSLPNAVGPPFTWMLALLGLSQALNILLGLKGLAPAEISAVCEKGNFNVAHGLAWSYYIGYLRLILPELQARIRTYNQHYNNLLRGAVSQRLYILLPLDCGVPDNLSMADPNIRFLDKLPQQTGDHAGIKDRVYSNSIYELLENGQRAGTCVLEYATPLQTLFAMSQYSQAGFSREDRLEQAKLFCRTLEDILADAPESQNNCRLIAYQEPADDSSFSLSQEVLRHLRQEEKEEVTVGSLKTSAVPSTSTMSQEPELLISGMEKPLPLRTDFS
T1 sequence (Q96SW2 whole entry, looked up): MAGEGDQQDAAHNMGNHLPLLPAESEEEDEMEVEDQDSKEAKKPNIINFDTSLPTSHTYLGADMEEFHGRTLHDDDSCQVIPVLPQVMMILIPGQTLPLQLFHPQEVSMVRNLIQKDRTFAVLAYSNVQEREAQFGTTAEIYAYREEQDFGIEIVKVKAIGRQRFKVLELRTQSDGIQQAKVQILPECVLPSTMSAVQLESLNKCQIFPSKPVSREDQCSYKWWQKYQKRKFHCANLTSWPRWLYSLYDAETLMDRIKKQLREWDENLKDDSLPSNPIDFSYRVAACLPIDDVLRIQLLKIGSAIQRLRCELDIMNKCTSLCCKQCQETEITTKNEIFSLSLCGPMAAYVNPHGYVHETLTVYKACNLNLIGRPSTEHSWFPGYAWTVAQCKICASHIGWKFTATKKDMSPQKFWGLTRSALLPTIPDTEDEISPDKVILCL

[11] = Clearance in male Sprague-Dawley rat at 2 mg/kg, iv measured after 12 hrs by LC-MS/MS analysis; format: ADME, organism-based; conditions: in vivo
[12] = test system: Mus musculus; test: Renoprotective activity against cisplatin-induced C57BL/6J mouse acute kidney injury model assessed as decrease in disease activity index score at 25 to 50 mg/kg, ip measured after 72 hrs; format: functional, organism-based; conditions: dose 25-50 mg/kg
[13] = test system: HK-2; test: Inhibition of ROS formation in human HK-2 cells measured after 24 hrs in presence of cisplatin by DAPI staining based fluorescence microscopic analysis; format: functional, cell-based; conditions: dose 1.25-5 µM
[14] = molecular target: T2, Protein cereblon/Stimulator of interferon genes protein (Mus musculus) (UniProt Q3TBT3+Q8C7D2); test: In vivo inhibition of STING/TBK1/NF-kappaB signaling in C57BL/6J mouse assessed as decrease in serum IL-6 level at 25 to 50 mg/kg, ip measured after 72 hrs by ELISA; format: functional, organism-based; conditions: dose 25-50 mg/kg
T2 sequence (Q3TBT3 whole entry, looked up): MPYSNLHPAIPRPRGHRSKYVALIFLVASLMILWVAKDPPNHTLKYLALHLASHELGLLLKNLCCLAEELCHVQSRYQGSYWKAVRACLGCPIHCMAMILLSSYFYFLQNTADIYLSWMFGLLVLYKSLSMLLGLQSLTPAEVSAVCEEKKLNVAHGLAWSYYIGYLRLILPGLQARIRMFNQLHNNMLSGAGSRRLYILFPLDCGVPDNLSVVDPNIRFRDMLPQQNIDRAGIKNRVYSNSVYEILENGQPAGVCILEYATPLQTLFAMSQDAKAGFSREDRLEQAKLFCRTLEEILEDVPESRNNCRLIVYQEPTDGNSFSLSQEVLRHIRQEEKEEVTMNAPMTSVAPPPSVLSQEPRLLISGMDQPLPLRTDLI
T2 sequence (Q8C7D2 whole entry, looked up): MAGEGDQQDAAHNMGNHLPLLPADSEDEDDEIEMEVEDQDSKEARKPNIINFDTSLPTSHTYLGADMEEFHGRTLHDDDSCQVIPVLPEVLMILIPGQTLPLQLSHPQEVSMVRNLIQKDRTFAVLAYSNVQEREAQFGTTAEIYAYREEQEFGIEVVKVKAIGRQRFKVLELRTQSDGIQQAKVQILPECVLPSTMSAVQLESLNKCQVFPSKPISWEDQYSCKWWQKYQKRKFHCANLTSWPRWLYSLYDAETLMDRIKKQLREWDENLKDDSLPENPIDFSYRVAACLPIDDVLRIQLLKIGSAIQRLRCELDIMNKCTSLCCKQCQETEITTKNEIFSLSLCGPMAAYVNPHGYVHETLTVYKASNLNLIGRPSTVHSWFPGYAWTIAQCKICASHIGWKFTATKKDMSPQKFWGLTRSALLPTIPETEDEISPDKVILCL

[15] = test system: Mus musculus; test: Renoprotective activity against cisplatin-induced C57BL/6J mouse acute kidney injury model assessed as reduction in creatinine level at 25 to 50 mg/kg, ip measured after 72 hrs; format: functional, organism-based; conditions: dose 25-50 mg/kg
[16] = Acute toxicity in C57BL/6J mouse; conditions: in vivo, dose 30 mg/kg
[17] = molecular target: T2, Protein cereblon/Stimulator of interferon genes protein (Mus musculus); test: In vivo inhibition of STING/TBK1/NF-kappaB signaling in C57BL/6J mouse assessed as decrease in serum IFN-beta level at 25 to 50 mg/kg, ip measured after 72 hrs by ELISA; format: functional, organism-based; conditions: dose 25-50 mg/kg
[18] = test system: Mus musculus; test: Renoprotective activity against cisplatin-induced C57BL/6J mouse acute kidney injury model assessed as decrease in body weight at 25 to 50 mg/kg, ip measured after 72 hrs; format: functional, organism-based; conditions: dose 25-50 mg/kg
[19] = Acute toxicity in C57BL/6J mouse assessed as change in body weight at 30 mg/kg; format: organism-based; conditions: in vivo
[20] = test system: Mus musculus; test: Renoprotective activity against cisplatin-induced C57BL/6J mouse acute kidney injury model assessed as decrease in fecal viscosity at 25 to 50 mg/kg, ip measured after 72 hrs; format: functional, organism-based; conditions: dose 25-50 mg/kg
[21] = Water solubility of the compound at 2 mg by HPLC analysis; format: physicochemical
[22] = molecular target: T2, Protein cereblon/Stimulator of interferon genes protein (Mus musculus); test: In vivo inhibition of STING/TBK1/NF-kappaB signaling in C57BL/6J mouse assessed as decrease in P-TBK1 protein level in kidney at 25 to 50 mg/kg, ip measured after 72 hrs by Western blotting analysis; format: functional, organism-based; conditions: dose 25-50 mg/kg
[23] = Cytotoxicity against rat BRL-3A cells assessed as reduction in cell viability at 0.5 to 120 uM incubated for 24 hrs by MTT assay; format: toxicity, cell-based; conditions: dose 0.5-120 µM
[24] = test system: BV-2; test: Cytotoxicity against mouse BV-2 cells assessed as reduction in cell viability at > 60 uM incubated for 24 hrs by MTT assay; format: toxicity, cell-based; conditions: bv-2, 24 h
[25] = AUC (0 to t) in male Sprague-Dawley rat at 2 mg/kg, iv measured after 12 hrs by LC-MS/MS analysis; format: ADME, organism-based; conditions: in vivo
[26] = Toxicity in cisplatin-induced acute kidney injury C57BL/6J mouse model assessed as morphological abnormality in spleen at 25 to 50 mg/kg, ip by H and E staining based analysis; format: organism-based; conditions: in vivo, dose 25-50 mg/kg
[27] = test system: Mus musculus; test: Renoprotective activity against cisplatin-induced C57BL/6J mouse acute kidney injury model assessed as recovery of body weight administered intraperitoneally and measured after 72 hrs; format: functional, organism-based; conditions: dose 25-50 mg/kg, route ip
[28] = MRT (0 to infinity) in male Sprague-Dawley rat at 2 mg/kg, iv measured after 12 hrs by LC-MS/MS analysis; format: ADME, organism-based; conditions: in vivo
[29] = test system: THP-1; test: PROTAC activity at CRBN/LKB1 in human THP-1 cells assessed as induction of LKB1 degradation at 1.25 to 20 uM by Western blotting analysis; format: cell-based; conditions: dose 1.25-20 µM
[30] = Half life in male Sprague-Dawley rat at 2 mg/kg, iv measured after 12 hrs by LC-MS/MS analysis; format: ADME, organism-based; conditions: in vivo
[31] = test system: THP-1; test: PROTAC activity at CRBN/STAT3 in human THP-1 cells assessed as induction of STAT3 degradation at 1.25 to 20 uM by Western blotting analysis; format: cell-based; conditions: dose 1.25-20 µM
[32] = Acute toxicity in C57BL/6J mouse assessed as survival at 30 to 179 mg/kg; format: organism-based; conditions: in vivo, dose 30-179 mg/kg
[33] = Toxicity in cisplatin-induced acute kidney injury C57BL/6J mouse model assessed as morphological abnormality in liver at 25 to 50 mg/kg, ip by H and E staining based analysis; format: organism-based; conditions: in vivo, dose 25-50 mg/kg
[34] = molecular target: T1, Protein cereblon/Stimulator of interferon genes protein; test: PROTAC activity at CRBN/STING in human THP-1 cells assessed as induction of STING degradation at 5 uM measured after 24 hrs by Western blotting analysis relative to control; format: cell-based
[35] = Tmax in male Sprague-Dawley rat at 2 mg/kg, iv measured after 12 hrs by LC-MS/MS analysis; format: ADME, organism-based; conditions: in vivo
[36] = Acute toxicity in C57BL/6J mouse assessed as change in body weight at 179 mg/kg; format: organism-based; conditions: in vivo
[37] = Cmax in male Sprague-Dawley rat at 2 mg/kg, iv measured after 12 hrs by LC-MS/MS analysis; format: ADME, organism-based; conditions: in vivo

O=C(/C=C/C(=O)N1CCN(CC2CCN(c3cccc4c3C(=O)N(C3CCC(=O)NC3=O)C4=O)C2)CC1)Nc1ccc(NC(=O)c2ccc([N+](=O)[O-])o2)cc1 (configuration not stated)
Activity [1]: 24.2 g
survival at 50 mg/kg [2]: 100%
AUC [3]: 0.73 µg/ml.hr
Activity [4]: Non-toxic
MRT last at 12 h [5]: 12 min
Activity [6]: Active
Activity [7]: 25.3 g
inhibition [8]: Active
inhibition [9]: Active
Activity [10]: Active
CL [11]: 53.3 mL/min/kg
Activity_index [12]: Active
inhibition [13]: Dose-dependent-effect
inhibition [14]: Active
Activity [15]: Active
LD50 [16]: > 179 mg/kg
inhibition [17]: Active
Activity [18]: Active
Activity [19]: 25.1 g
Activity [20]: Active
solubility [21]: 3.317 µg/mL (≈ 4.41 µM)
inhibition [22]: Active
Activity [23]: Non-toxic
Activity [24]: Non-toxic
AUC(0-t) at 12 h [25]: 729 ng·h/mL
Activity [26]: Non-toxic
Activity [27]: Dose-dependent-effect
MRT inf [28]: 12.6 min
Activity [29]: inactive
half-life [30]: 51.6 min
Activity [31]: inactive
survival [32]: 100%
Activity [33]: Non-toxic
Activity [34]: 90.6%
Tmax [35]: 4.8 min
Activity [36]: 22.8 g
Cmax [37]: 2390 ng/mL
